Read-outs that look alike come from different tables or passages of the source. Numbered stars: 1 amine (or outer) side, 2 acyl side, 3 side chain; on linkers, the order of the positions; unused ones are H or OH. Square brackets hold non-standard residues; d marks the D form. Side chains are listed from the residue outwards. Peptide text beside a SMILES is read from it. * marks the point of attachment. C20 diacid = O=C(O)CCCCCCCCCCCCCCCCCCC(=O)*; γGlu = O=C(O)[C@H](CCC(=O)[*:2])N[*:1]; AEEA = NCCOCCOCC(=O)O; Aib = CC(C)(N)C(=O)O
Tests used:
[1] = Turbidity of crude library peptides (absorbance at 600 nm); type: physicochemical; conditions: Physical stability of peptides
Procedure, shortened: (§1)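 Fibril formation is scored as average ThT fluorescence from duplicate samples monitored for 72 h at 40° C with shaking stress. Turbidity is the absorbance at 600 nm taken before heating. Peptide concentration was 267 μM at pH 4.0 or pH 7.0.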

[2] = Fibril formation of crude library peptides (Thioflavin T); type: physicochemical; parameters: key: average ThT fluorescence emission at 480 nm (ex 450 nm), raw units; conditions: Physical stability of peptides
Procedure, shortened: as §1

GLP1R = GLP1R (Homo sapiens, UniProt P43220); test: hGLP1R potency, cAMP accumulation in CHO-K1 cells stably overexpressing hGLP1R; type: cell-based; parameters: host or cells: CHO-K1; conditions: for Selectivity: SCTR EC50/GLP1R EC50 ratio; for EC50: cAMP accumulation; for SCTR EC50/GLP1R EC50 ratio: cAMP accumulation in CHO-K1 cells
GLP1R, sequence (P43220 24-463): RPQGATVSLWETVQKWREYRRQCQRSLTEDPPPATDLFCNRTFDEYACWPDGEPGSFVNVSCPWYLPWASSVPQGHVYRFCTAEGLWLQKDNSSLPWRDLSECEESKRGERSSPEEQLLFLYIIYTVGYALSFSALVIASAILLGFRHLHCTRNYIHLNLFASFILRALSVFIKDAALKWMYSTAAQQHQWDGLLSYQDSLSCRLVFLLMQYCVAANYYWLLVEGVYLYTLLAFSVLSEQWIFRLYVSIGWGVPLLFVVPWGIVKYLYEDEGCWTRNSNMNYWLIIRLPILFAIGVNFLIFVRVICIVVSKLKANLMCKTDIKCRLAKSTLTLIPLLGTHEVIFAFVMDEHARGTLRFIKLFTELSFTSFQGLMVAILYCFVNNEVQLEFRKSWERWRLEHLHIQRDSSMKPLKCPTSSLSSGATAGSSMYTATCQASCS
Procedure, shortened: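 In the presence of 0.5 mM IBMX, compounds stimulated the cells for 30 minutes at room temperature. Accumulated cAMP was then detected by TR-FRET, with EC50 values fitted by variable-slope nonlinear regression.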

SCTR = SCTR (Homo sapiens, UniProt P47872); test: hSCTR potency, cAMP accumulation in CHO-K1 cells stably overexpressing hSCTR; type: cell-based; parameters: alternatively Euroscreen ES-712-AF; FAST-0161L; host or cells: CHO-K1; conditions: cAMP accumulation
SCTR, sequence (P47872 23-440): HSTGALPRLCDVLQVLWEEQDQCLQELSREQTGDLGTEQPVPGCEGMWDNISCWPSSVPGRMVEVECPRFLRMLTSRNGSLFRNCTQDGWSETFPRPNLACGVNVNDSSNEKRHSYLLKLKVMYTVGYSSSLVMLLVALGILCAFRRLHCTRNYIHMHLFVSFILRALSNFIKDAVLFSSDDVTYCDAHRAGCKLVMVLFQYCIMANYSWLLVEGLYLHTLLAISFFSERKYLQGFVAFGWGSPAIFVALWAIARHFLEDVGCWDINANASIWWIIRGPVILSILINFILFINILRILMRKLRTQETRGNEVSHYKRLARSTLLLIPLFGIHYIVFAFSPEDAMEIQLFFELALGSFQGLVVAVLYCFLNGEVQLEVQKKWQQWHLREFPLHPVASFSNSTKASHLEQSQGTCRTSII
Procedure, shortened: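 In this Gs cAMP assay, stably transfected CHO-K1 hSCTR cells were stimulated at room temperature for 30 min in IBMX-containing buffer. Time-resolved FRET gave the signal. Replicates were increased when the top concentration changed or EC50 values differed 5-fold.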

[3] = CHO-K1 cells overexpressing hGLP1R, read-out: pEC50 hGLPR1 (converted)
[4] = CHO-K1 cells overexpressing hSCTR, read-out: pEC50 hSCTR (converted)
[5] = CHO-K1 cells overexpressing hGLP1R, read-out: hGLP1R pEC50 (converted)
[6] = selectivity for hGLP1R over hSCTR
[7] = CHO-K1 cells overexpressing hSCTR, read-out: hSCTR pEC50 (converted)

| Structure (SMILES) | Turbidity (pH 7) [1] | Fibril formation [2] | Selectivity (GLP1R) | EC50 (GLP1R; [3]) [nM] | EC50 (SCTR; [4]) [nM] | EC50 (GLP1R; [5]) [nM] | SCTR EC50/GLP1R EC50 ratio (GLP1R; [6]) | EC50 (SCTR; [7]) [nM] | EC50 (GLP1R; CHO-K1 cells stably overexpressing hGLP1R, read-out: hGLP1R potency (pEC50) (converted)) [nM] | SCTR EC50/GLP1R EC50 ratio (GLP1R; selectivity ratio, hSCTR vs hGLP1R) | EC50 (SCTR; CHO-K1 cells stably overexpressing hSCTR, read-out: hSCTR potency (pEC50) (converted)) [nM] |
| --- | --- | --- | --- | --- | --- | --- | --- | --- | --- | --- | --- |
| CC(C)C[C@H](NC(=O)[C@H](Cc1ccccc1)NC(=O)[C@H](CCCNC(=N)N)NC(=O)[C@H](CCC(N)=O)NC(=O)[C@H](CCC(=O)O)NC(=O)[C@H](C)NC(=O)[C@H](C)NC(=O)[C@H](CCC(=O)O)NC(=O)[C@H](CCC(=O)O)NC(=O)[C@H](CCCCNC(=O)COCCOCCNC(=O)COCCOCCNC(=O)CC[C@H](NC(=O)CCCCCCCCCCCCCCCCCCC(=O)O)C(=O)O)NC(=O)[C@H](CC(C)C)NC(=O)[C@H](Cc1ccccc1)NC(=O)[C@H](CO)NC(=O)[C@@H](NC(=O)[C@H](CC(=O)O)NC(=O)[C@H](CO)NC(=O)[C@@H](NC(=O)[C@H](Cc1ccccc1)NC(=O)[C@@H](NC(=O)CNC(=O)[C@H](CCC(=O)O)NC(=O)C(C)(C)NC(=O)[C@@H](N)Cc1c[nH]cn1)[C@@H](C)O)[C@@H](C)O)C(C)C)C(=O)N[C@@H](CCC(=O)O)C(=O)N[C@@H](Cc1c[nH]cn1)C(=O)N[C@@H](CC(C)C)C(=O)N[C@H](C(N)=O)C(C)C [compound 56] (H-H[Aib]EGTFTSDVSFLK([AEEA-AEEA-γGlu-C20 diacid])EEAAEQRFLEHLV-NH2) | 0.10 | 11030 | 179887 | 0.0398 | 7940 | – | – | – | – | – | – |
| CC(C)C[C@H](NC(=O)[C@H](Cc1ccccc1)NC(=O)[C@H](CCCNC(=N)N)NC(=O)[C@H](CCC(N)=O)NC(=O)[C@H](CC(C)C)NC(=O)C(C)(C)NC(=O)[C@H](C)NC(=O)[C@H](CCC(=O)O)NC(=O)[C@H](CCC(=O)O)NC(=O)[C@H](Cc1ccccc1)NC(=O)[C@H](CC(C)C)NC(=O)[C@H](Cc1ccc(O)cc1)NC(=O)[C@H](CO)NC(=O)[C@@H](NC(=O)[C@H](CC(=O)O)NC(=O)[C@H](CO)NC(=O)[C@@H](NC(=O)[C@H](Cc1ccccc1)NC(=O)[C@@H](NC(=O)CNC(=O)[C@H](CCC(=O)O)NC(=O)C(C)(C)NC(=O)[C@@H](N)Cc1c[nH]cn1)[C@@H](C)O)[C@@H](C)O)C(C)C)C(=O)N[C@@H](CCC(=O)O)C(=O)N[C@@H](CCCCNC(=O)COCCOCCNC(=O)COCCOCCNC(=O)CC[C@H](NC(=O)CCCCCCCCCCCCCCCCCCC(=O)O)C(=O)O)C(=O)N[C@@H](CC(C)C)C(=O)N[C@H](C(N)=O)C(C)C [compound 176] (H-H[Aib]EGTFTSDVSYLFEEA[Aib]LQRFLEK([AEEA-AEEA-γGlu-C20 diacid])LV-NH2) | 0.08 | 3751 | – | – | – | 0.0316 | 89023 | 3160 | – | – | – |
| CC(C)C[C@H](NC(=O)[C@H](Cc1ccccc1)NC(=O)[C@H](CCCNC(=N)N)NC(=O)[C@H](CCC(N)=O)NC(=O)[C@H](CC(C)C)NC(=O)C(C)(C)NC(=O)[C@H](C)NC(=O)[C@H](CCC(=O)O)NC(=O)[C@H](CCC(=O)O)NC(=O)[C@H](CCCCNC(=O)COCCOCCNC(=O)COCCOCCNC(=O)CC[C@H](NC(=O)CCCCCCCCCCCCCCCCCCC(=O)O)C(=O)O)NC(=O)[C@H](CC(C)C)NC(=O)[C@H](Cc1ccc(O)cc1)NC(=O)[C@H](CO)NC(=O)[C@@H](NC(=O)[C@H](CC(=O)O)NC(=O)[C@H](CO)NC(=O)[C@@H](NC(=O)[C@H](Cc1ccccc1)NC(=O)[C@@H](NC(=O)CNC(=O)[C@H](CCC(=O)O)NC(=O)C(C)(C)NC(=O)[C@@H](N)Cc1c[nH]cn1)[C@@H](C)O)[C@@H](C)O)C(C)C)C(=O)N[C@@H](CCC(=O)O)C(=O)N[C@@H](Cc1ccccc1)C(=O)N[C@@H](CC(C)C)C(=O)N[C@H](C(N)=O)C(C)C [compound 133] (H-H[Aib]EGTFTSDVSYLK([AEEA-AEEA-γGlu-C20 diacid])EEA[Aib]LQRFLEFLV-NH2) | 0.08 | 4303 | – | – | – | 0.0158 | 23332 | 398 | – | – | – |
| CC(C)C[C@H](NC(=O)[C@H](Cc1ccccc1)NC(=O)[C@H](CCCNC(=N)N)NC(=O)[C@H](CCC(N)=O)NC(=O)C(C)(C)NC(=O)[C@H](C)NC(=O)[C@H](C)NC(=O)[C@H](Cc1ccccc1)NC(=O)[C@H](CCC(=O)O)NC(=O)[C@H](CCCCNC(=O)COCCOCCNC(=O)COCCOCCNC(=O)CC[C@H](NC(=O)CCCCCCCCCCCCCCCCCCC(=O)O)C(=O)O)NC(=O)[C@H](CC(C)C)NC(=O)[C@H](Cc1ccc(O)cc1)NC(=O)[C@H](CO)NC(=O)[C@@H](NC(=O)[C@H](CC(=O)O)NC(=O)[C@H](CO)NC(=O)[C@@H](NC(=O)[C@H](Cc1ccccc1)NC(=O)[C@@H](NC(=O)CNC(=O)[C@H](CCC(=O)O)NC(=O)C(C)(C)NC(=O)[C@@H](N)Cc1c[nH]cn1)[C@@H](C)O)[C@@H](C)O)C(C)C)C(=O)N[C@@H](CCC(=O)O)C(=O)N[C@@H](Cc1c[nH]cn1)C(=O)N[C@@H](CC(C)C)C(=O)N[C@H](C(N)=O)C(C)C [compound 46] (H-H[Aib]EGTFTSDVSYLK([AEEA-AEEA-γGlu-C20 diacid])EFAA[Aib]QRFLEHLV-NH2) | 0.08 | 16732 | 67329 | 0.0501 | 3980 | – | – | – | – | – | – |
| CC(C)C[C@H](NC(=O)[C@H](Cc1ccccc1)NC(=O)[C@H](CCCNC(=N)N)NC(=O)[C@H](CCC(N)=O)NC(=O)C(C)(C)NC(=O)[C@H](C)NC(=O)[C@H](C)NC(=O)[C@H](CCC(=O)O)NC(=O)[C@H](CCC(=O)O)NC(=O)[C@H](CCCCNC(=O)COCCOCCNC(=O)COCCOCCNC(=O)CC[C@H](NC(=O)CCCCCCCCCCCCCCCCCCC(=O)O)C(=O)O)NC(=O)[C@H](CC(C)C)NC(=O)[C@H](Cc1ccccc1)NC(=O)[C@H](CO)NC(=O)[C@@H](NC(=O)[C@H](CC(=O)O)NC(=O)[C@H](CO)NC(=O)[C@@H](NC(=O)[C@H](Cc1ccccc1)NC(=O)[C@@H](NC(=O)CNC(=O)[C@H](CCC(=O)O)NC(=O)C(C)(C)NC(=O)[C@@H](N)Cc1c[nH]cn1)[C@@H](C)O)[C@@H](C)O)C(C)C)C(=O)N[C@@H](CCC(=O)O)C(=O)N[C@@H](Cc1c[nH]cn1)C(=O)N[C@@H](CC(C)C)C(=O)N[C@H](C(N)=O)C(C)C [compound 37] (H-H[Aib]EGTFTSDVSFLK([AEEA-AEEA-γGlu-C20 diacid])EEAA[Aib]QRFLEHLV-NH2) | 0.08 | 12367 | 158052 | 0.0126 | 2000 | – | – | – | – | – | – |
| CC[C@H](C)[C@H](NC(=O)[C@H](Cc1ccccc1)NC(=O)[C@H](CCCNC(=N)N)NC(=O)[C@H](CCC(N)=O)NC(=O)[C@H](CC(C)C)NC(=O)[C@H](C)NC(=O)[C@H](C)NC(=O)CNC(=O)[C@H](CCC(=O)O)NC(=O)[C@H](CC(C)C)NC(=O)[C@H](CC(C)C)NC(=O)[C@H](Cc1ccccc1)NC(=O)[C@H](CO)NC(=O)[C@H](Cc1ccc(O)cc1)NC(=O)[C@H](CC(=O)O)NC(=O)[C@H](CO)NC(=O)[C@@H](NC(=O)[C@H](Cc1ccccc1)NC(=O)[C@@H](NC(=O)CNC(=O)[C@H](CCC(=O)O)NC(=O)C(C)(C)NC(=O)[C@@H](N)Cc1c[nH]cn1)[C@@H](C)O)[C@@H](C)O)C(=O)N[C@@H](CCC(N)=O)C(=O)N[C@@H](Cc1c[nH]c2ccccc12)C(=O)N[C@@H](CC(C)C)C(=O)N[C@H](C(N)=O)C(C)C [compound 202] (H-H[Aib]EGTFTSDYSFLLEGAALQRFIQWLV-NH2) | 0.60 | 260000 | – | – | – | – | – | – | 0.0398 | 820 | 39.8 |
| CC(C)C[C@H](NC(=O)[C@H](Cc1ccccc1)NC(=O)[C@H](CCCNC(=N)N)NC(=O)[C@H](CCC(N)=O)NC(=O)[C@H](C)NC(=O)[C@H](C)NC(=O)[C@H](C)NC(=O)[C@@H](NC(=O)[C@H](CCC(=O)O)NC(=O)[C@H](CCCCNC(=O)COCCOCCNC(=O)COCCOCCNC(=O)CC[C@H](NC(=O)CCCCCCCCCCCCCCCCCCC(=O)O)C(=O)O)NC(=O)[C@H](CC(C)C)NC(=O)[C@H](Cc1ccccc1)NC(=O)[C@H](CO)NC(=O)[C@@H](NC(=O)[C@H](CC(=O)O)NC(=O)[C@H](CO)NC(=O)[C@@H](NC(=O)[C@H](Cc1ccccc1)NC(=O)[C@@H](NC(=O)CNC(=O)[C@H](CCC(=O)O)NC(=O)C(C)(C)NC(=O)[C@@H](N)Cc1c[nH]cn1)[C@@H](C)O)[C@@H](C)O)C(C)C)[C@@H](C)O)C(=O)N[C@@H](CCC(=O)O)C(=O)N[C@@H](Cc1c[nH]cn1)C(=O)N[C@@H](CC(C)C)C(=O)N[C@H](C(N)=O)C(C)C [compound 44] (H-H[Aib]EGTFTSDVSFLK([AEEA-AEEA-γGlu-C20 diacid])ETAAAQRFLEHLV-NH2) | 0.08 | 10742 | 114525 | 0.0316 | 3980 | – | – | – | – | – | – |
